Source: ChEMBL document CHEMBL1201862, “PubChem BioAssay data set” (2004)
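Following 48 hours of exposure in 96-well plates, responses at five concentrations were used to interpolate endpoints linearly. GI50: concentration for 50% inhibition of growth.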 Active and inactive are the calls of the source. No stated cut-off is given here; in the data, active = GI50 up to about 1.1 µM and inactive = higher.

How the values were obtained:
Test in all cases: inhibition of tumour cell growth, NCI panel, 48 h
SW-620 = test system: SW-620
SF-268 = test system: SF-268
CAKI-1 = test system: CAKI-1
LXFL 529 = test system: LXFL 529
Malme-3M = test system: Malme-3M
HCT-15 = test system: HCT-15
PC-3 = test system: PC-3
A549 = test system: A549
SR = test system: SR
M19-MEL = test system: M19-MEL
SNB-19 = test system: SNB-19
K562 = test system: K562
ACHN = test system: ACHN
HT-29 = test system: HT-29
UACC-257 = test system: UACC-257
HOP-92 = test system: HOP-92
HCT-116 = test system: HCT-116
SN12C = test system: SN12C
HL-60 = test system: HL-60

Question: What does the source list for `CCCCC(=O)OCC(=O)[C@]1(O)Cc2c(O)c3c(c(O)c2[C@@H](OC2CC(NC(=O)C(F)(F)F)C(O)C(C)O2)C1)C(=O)c1c(OC)cccc1C3=O` (some centres undefined)?
Answer: GI50 (SW-620): 261 nM (active); GI50 (SF-268): 403 nM (active); GI50 (CAKI-1): 203 nM (active); GI50 (LXFL 529): 743 nM (active); GI50 (Malme-3M): 711 nM (active); GI50 (HCT-15): 1390 nM; GI50 (PC-3): 1140 nM (inactive); GI50 (A549): 194 nM (active); GI50 (SR): 30.4 nM (active); GI50 (M19-MEL): 331 nM (active); GI50 (SNB-19): 348 nM (active); GI50 (K562): 337 nM (active); GI50 (ACHN): 406 nM (active); GI50 (HT-29): 740 nM (active); GI50 (UACC-257): 1300 nM (inactive); GI50 (HOP-92): 376 nM (active); GI50 (HCT-116): 294 nM (active); GI50 (SN12C): 290 nM (active); GI50 (HL-60): 126 nM (active)
